In patent publication US20250179066A1, “ZWITTERIONIC ANTIBACTERIAL COMPOUNDS” (Hoffmann-La Roche Inc., priority 2022, published 2025):
Structures can show the parent of a compound that is named as a salt.

system: Acinetobacter baumannii ATCC17961; test: Antimicrobial susceptibility testing: 90% growth inhibitory concentration (IC90) determination; assay type: cell-based; conditions: 90% growth inhibitory concentration against Acinetobacter baumannii ATCC17961, Iso-Sensitest broth, OD 600 nm over 16 h; read-out: ATCC 17961 IC90
How it was run: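 OD600 monitored each minute over 16 h at 35±2° C for bacteria (~5×10^5 CFU/mL final) in Iso-Sensitest medium with 10-point twofold compound series (e.g. 10-0.0195 μM final). Concentration giving 90% growth inhibition in log phase reported as IC90.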

With `Cn1c(-c2cn(-c3cc4ccccc4s3)nc2C(F)(F)F)cnc1C(=O)Nc1ccc(C(=O)N2CCN(C(=O)C3CC[N+](CC(=O)O)(CC4CNC4)CC3)CC2)c(Cl)c1` (stereo not shown) [Example 95, 2-[1-(Azetidin-3-ylmethyl)-4-[4-[4-[[5-[1-(benzothiophen-2-yl)-3-(trifluoromethyl)pyrazol-4-yl]-1-methyl-imidazole-2-carbonyl]amino]-2-chloro-benzoyl]piperazine-1-carbonyl]piperidin-1-ium-1-yl]Acetic Acid; Formic Acid; Formate] the IC90 was 1760 nM.

same assay, conditions: Acinetobacter baumannii, ATCC17961, 16 h, 90% growth inhibitory concentration against Acinetobacter baumannii ATCC17961, Iso-Sensitest broth, OD 600 nm over 16 h; read-out: ATCC 17961 IC90

Point of comparison: `Cn1c(-c2cn(-c3ccc(N)cn3)nc2C(F)(F)F)cnc1C(=O)Nc1ccc(C(=O)N2CCN(C(=O)C3CC[N+](CC(=O)O)(CC4CNC4)CC3)CC23CC3)c(Cl)c1` (stereo not shown) [Example 93, 2-[4-[4-[4-[[5-[1-(5-amino-2-pyridyl)-3-(trifluoromethyl)pyrazol-4-yl]-1-methyl-imidazole-2-carbonyl]amino]-2-chloro-benzoyl]-4,7-diazaspiro[2.5]octane-7-carbonyl]-1-(azetidin-3-ylmethyl)piperidin-1-ium-1-yl]acetic acid. 1:1 formate], IC90 1660 nM. Against it:
- Cn1c(-c2cn(-c3ccc(N)cn3)nc2C(F)(F)F)cnc1C(=O)Nc1ccc(C(=O)N2CCN(C(=O)CC[C@H](N)C(=O)O)CC2)c(Cl)c1 [Example 90, (2S)-2-amino-5-[4-[4-[[5-[1-(5-amino-2-pyridyl)-3-(trifluoromethyl)pyrazol-4-yl]-1-methyl-imidazole-2-carbonyl]amino]-2-chloro-benzoyl]piperazino]-5-keto-valeric acid. 1:1 2,2,2-trifluoroacetic acid] — within 1.5-fold, 1520 nM
- Cn1c(-c2cn(-c3ccc(N)cn3)nc2C(F)(F)F)cnc1C(=O)Nc1ccc(C(=O)N2CCN(C(=O)[C@@H](N)CC(=O)O)CC2)c(Cl)c1 [Example 91, (3S)-3-amino-4-[4-[4-[[5-[1-(5-amino-2-pyridyl)-3-(trifluoromethyl)pyrazol-4-yl]-1-methyl-imidazole-2-carbonyl]amino]-2-chloro-benzoyl]piperazino]-4-keto-butyric acid. 1:1 2,2,2-trifluoroacetic acid] — within 1.5-fold, 1530 nM
- Cn1c(-c2cn(-c3ccc(N)cn3)nc2C(F)(F)F)cnc1C(=O)Nc1ccc(C(=O)N2CC3CC4(C(=O)C5CC[N+](CC(=O)O)(CC6CNC6)CC5)CC(C2)N34)c(Cl)c1 (stereo not shown) [Example 92, 2-[4-[3-[4-[[5-[1-(5-amino-2-pyridyl)-3-(trifluoromethyl)pyrazol-4-yl]-1-methyl-imidazole-2-carbonyl]amino]-2-chloro-benzoyl]-3,9-diazabicyclo[3.3.1]nonane-9-carbonyl]-1-(azetidin-3-ylmethyl)piperidin-1-ium-1-yl]acetic acid. 1:1 formate] — within 1.5-fold, 1620 nM
- Cn1c(-c2cn(-c3sncc3N)nc2C(F)(F)F)cnc1C(=O)Nc1ccc(C(=O)N2CCN(C(=O)C3CC[N+](CC(=O)O)(CC4CNC4)CC3)CC2)c(Cl)c1 (stereo not shown) [Example 94, 2-[4-[4-[4-[[5-[1-(4-Aminoisothiazol-5-yl)-3-(trifluoromethyl)pyrazol-4-yl]-1-methyl-imidazole-2-carbonyl]amino]-2-chloro-benzoyl]piperazine-1-carbonyl]-1-(azetidin-3-ylmethyl)piperidin-1-ium-1-yl]acetic Acid.1:1 formate] — within 1.5-fold, 1730 nM
- Cn1c(-c2cn(-c3ccc(N)cn3)nc2C(F)(F)F)cnc1C(=O)Nc1ccc(C(=O)N2CCC(C(=O)NCCCc3cc[n+](CC(=O)O)c(CCCN)c3)CC2)c(Cl)c1 [Example 96, 2-[2-(3-aminopropyl)-4-[3-[[1-[4-[[5-[1-(5-amino-2-pyridyl)-3-(trifluoromethyl)pyrazol-4-yl]-1-methyl-imidazole-2-carbonyl]amino]-2-chloro-benzoyl]piperidine-4-carbonyl]amino]propyl]pyridin-1-ium-1-yl]acetic acid. 1:1 2,2,2-trifluoroacetic acid. 1:1 2,2,2-trifluoroacetate] — within 1.5-fold, 1820 nM
